Read-outs that look alike come from different tables or passages of the source.
Test system: DLD-1 BRCA2−/− cells
Assay: Homologous recombination synthetic lethal inhibition of proliferation, DLD-1 BRCA2-/- (Cell Titre Glo 3D)
Format: cell-based
Details: Homo sapiens, read-out: POLQ PD Prolif Lumin (converted)
Procedure, shortened: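 Luminescent Cell Titre Glo 3D readout, taken on day 12 for homologous-recombination-deficient DLD-1 BRCA2−/− and day 7 for the wild-type control, after compound refresh on day 6. Compounds spanned 10 μM to 0.51 nM in three-fold steps; IC50 defined as 50% reduction of average maximum signal.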

[1] = DLD-1, first proliferation column (c5), DLD-1 BRCA2-/-
[2] = DLD-1, DLD-1 BRCA2-/- proliferation, column head only partly shown

SMILES	IC50 [1]	IC50 [2]
CC1(Oc2ncnc3c2nc(-c2ccc(OCCC(=O)NS(C)(=O)=O)cc2Cl)n3Cc2cccc(Cl)c2)CC1 [Example T189, 3-(3-chloro-4-(9-(3-chlorobenzyl)-6-(1-methylcyclopropoxy)-9H-purin-8-yl)phenoxy)-N-(methylsulfonyl)propanamide]	3980 nM	
Cc1ccnc(Cn2c(-c3ccc(C(=O)NC[C@H](C)F)cc3Cl)nc3c(OC4(C)CC4)ncnc32)c1 [Example T190, (S)-3-chloro-N-(2-fluoropropyl)-4-(6-(1-methylcyclopropoxy)-9-((4-methylpyridin-2-yl)methyl)-9H-purin-8-yl)benzamide]	398 nM	
Cc1ccnc(Cn2c(-c3ccc(C(=O)NCCCF)cc3Cl)nc3c(OC4(C)CC4)ncnc32)c1 [Example T191, 3-chloro-N-(3-fluoropropyl)-4-(6-(1-methylcyclopropoxy)-9-((4-methylpyridin-2-yl)methyl)-9H-purin-8-yl)benzamide]	398 nM	
Cc1ccnc(Cn2c(-c3ccc(OCC4COC4)cc3Cl)nc3c(OC4(C)CC4)ncnc32)c1 [Example T193, 8-(2-chloro-4-(oxetan-3-ylmethoxy)phenyl)-6-(1-methylcyclopropoxy)-9-((4-methylpyridin-2-yl)methyl)-9H-purine]	251 nM	
Cc1ccnc(Cn2c(-c3ccc(OC[C@H]4CCO4)cc3Cl)nc3c(OC4(C)CC4)ncnc32)c1 [Example T194, (R)-8-(2-chloro-4-(oxetan-2-ylmethoxy)phenyl)-6-(1-methylcyclopropoxy)-9-((4-methylpyridin-2-yl)methyl)-9H-purine]	251 nM	
CNC(=O)COc1ccc(-c2nc3c(OC4(C)CC4)ncnc3n2CCc2ccccc2)c(Cl)c1 [Example T195, 2-(3-chloro-4-(6-(1-methylcyclopropoxy)-9-phenethyl-9H-purin-8-yl)phenoxy)-N-methylacetamide]	1260 nM	
Cc1ccnc(Cn2c(-c3ccc(O[C@H]4CCOC4)cc3Cl)nc3c(OC4(C)CC4)ncnc32)c1 [Example T196, (S)-8-(2-chloro-4-((tetrahydrofuran-3-yl)oxy)phenyl)-6-(1-methylcyclopropoxy)-9-((4-methylpyridin-2-yl)methyl)-9H-purine]	100 nM	
Cc1ccnc(Cn2c(-c3ccc(OCC4(O)COC4)cc3Cl)nc3c(OC4(C)CC4)ncnc32)c1 [Example T200, 3-((3-chloro-4-(6-(1-methylcyclopropoxy)-9-((4-methylpyridin-2-yl)methyl)-9H-purin-8-yl)phenoxy)methyl)oxetan-3-ol]	316 nM	
Cc1ccnc(Cn2c(-c3ccc(N4CCNC(=O)C4)cc3Cl)nc3c(OC4(C)CC4)ncnc32)c1 [Example T201, 4-(3-chloro-4-(6-(1-methylcyclopropoxy)-9-((4-methylpyridin-2-yl)methyl)-9H-purin-8-yl)phenyl)piperazin-2-one]	501 nM	
Cc1ccnc(Cn2c(-c3ccc(N4CCNCC4=O)cc3Cl)nc3c(OC4(C)CC4)ncnc32)c1 [Example T202, 1-(3-chloro-4-(6-(1-methylcyclopropoxy)-9-((4-methylpyridin-2-yl)methyl)-9H-purin-8-yl)phenyl)piperazin-2-one]		2510 nM
Cc1ccnc(Cn2c(-c3ccc(C(=O)NC(C)C)cc3Cl)nc3c(OC4(C)CC4)ncnc32)c1 [Example T211, 3-chloro-N-isopropyl-4-(6-(1-methylcyclopropoxy)-9-((4-methylpyridin-2-yl)methyl)-9H-purin-8-yl)benzamide]		501 nM
CC(=O)NCCc1ccc(-c2nc3c(OC4(C)CC4)ncnc3n2Cc2cc(C)ccn2)c(Cl)c1 [Example T212, N-(3-chloro-4-(6-(1-methylcyclopropoxy)-9-((4-methylpyridin-2-yl)methyl)-9H-purin-8-yl)phenethyl)acetamide]		398 nM
CCNC(=O)Cc1ccc(-c2nc3c(OC4(C)CC4)ncnc3n2Cc2cc(C)ccn2)c(Cl)c1 [Example T213, 2-(3-chloro-4-(6-(1-methylcyclopropoxy)-9-((4-methylpyridin-2-yl)methyl)-9H-purin-8-yl)phenyl)-N-ethylacetamide]		251 nM
CNC(=O)CCc1ccc(-c2nc3c(OC4(C)CC4)ncnc3n2Cc2cc(C)ccn2)c(Cl)c1 [Example T214, 3-(3-chloro-4-(6-(1-methylcyclopropoxy)-9-((4-methylpyridin-2-yl)methyl)-9H-purin-8-yl)phenyl)-N-methylpropanamide]		316 nM
Cc1ccnc(Cn2c(-c3ccc(OCC(=O)N(C)C)cc3Cl)nc3c(OC4(C)CC4)ncnc32)c1 [Example T216, 2-(3-chloro-4-(6-(1-methylcyclopropoxy)-9-((4-methylpyridin-2-yl)methyl)-9H-purin-8-yl)phenoxy)-N,N-dimethylacetamide]		316 nM
Cc1ccnc(Cn2c(-c3ccc(C(=O)NCCCO)cc3Cl)nc3c(OC4(C)CC4)ncnc32)c1 [Example T217, 3-chloro-N-(3-hydroxypropyl)-4-(6-(1-methylcyclopropoxy)-9-((4-methylpyridin-2-yl)methyl)-9H-purin-8-yl)benzamide]		1000 nM

SMILES	IC50 [1]	IC50 [2]
Cc1ccnc(Cn2c(-c3ccc(C(=O)NC[C@H](C)O)cc3Cl)nc3c(OC4(C)CC4)ncnc32)c1 [Example T218, (S)-3-chloro-N-(2-hydroxypropyl)-4-(6-(1-methylcyclopropoxy)-9-((4-methylpyridin-2-yl)methyl)-9H-purin-8-yl)benzamide]		631 nM
CC(=O)NCCOc1ccc(-c2nc3c(OC4(C)CC4)ncnc3n2Cc2cc(C)ccn2)c(Cl)c1 [Example T219, N-(2-(3-chloro-4-(6-(1-methylcyclopropoxy)-9-((4-methylpyridin-2-yl)methyl)-9H-purin-8-yl)phenoxy)ethyl)acetamide]		251 nM
Cc1ccnc(Cn2c(-c3ccc(C(=O)N(C)CCO)cc3Cl)nc3c(OC4(C)CC4)ncnc32)c1 [Example T220, 3-chloro-N-(2-hydroxyethyl)-N-methyl-4-(6-(1-methylcyclopropoxy)-9-((4-methylpyridin-2-yl)methyl)-9H-purin-8-yl)benzamide]		3160 nM
CCNC(=O)COc1ccc(-c2nc3c(OC4(C)CC4)ncnc3n2Cc2cc(C)ccn2)c(Cl)c1 [Example T221, 2-(3-chloro-4-(6-(1-methylcyclopropoxy)-9-((4-methylpyridin-2-yl)methyl)-9H-purin-8-yl)phenoxy)-N-ethylacetamide]		316 nM
COC(=O)NCCc1ccc(-c2nc3c(OC4(C)CC4)ncnc3n2Cc2cc(C)ccn2)c(Cl)c1 [Example T222, methyl (3-chloro-4-(6-(1-methylcyclopropoxy)-9-((4-methylpyridin-2-yl)methyl)-9H-purin-8-yl)phenethyl)carbamate]		200 nM
Cc1ccnc(Cn2c(-c3ccc(CCNC(=O)CO)cc3Cl)nc3c(OC4(C)CC4)ncnc32)c1 [Example T223, N-(3-chloro-4-(6-(1-methylcyclopropoxy)-9-((4-methylpyridin-2-yl)methyl)-9H-purin-8-yl)phenethyl)-2-hydroxyacetamide]		501 nM
Cc1ccnc(Cn2c(-c3ccc(CC(=O)NCCO)cc3Cl)nc3c(OC4(C)CC4)ncnc32)c1 [Example T224, 2-(3-chloro-4-(6-(1-methylcyclopropoxy)-9-((4-methylpyridin-2-yl)methyl)-9H-purin-8-yl)phenyl)-N-(2-hydroxyethyl)acetamide]		1000 nM
Cc1ccnc(Cn2c(-c3ccc(OCC(=O)NCCO)cc3Cl)nc3c(OC4(C)CC4)ncnc32)c1 [Example T226, 2-(3-chloro-4-(6-(1-methylcyclopropoxy)-9-((4-methylpyridin-2-yl)methyl)-9H-purin-8-yl)phenoxy)-N-(2-hydroxyethyl)acetamide]		158 nM
Cc1ccnc(Cn2c(-c3ccc(OCCNC(=O)CO)cc3Cl)nc3c(OC4(C)CC4)ncnc32)c1 [Example T227, N-(2-(3-chloro-4-(6-(1-methylcyclopropoxy)-9-((4-methylpyridin-2-yl)methyl)-9H-purin-8-yl)phenoxy)ethyl)-2-hydroxyacetamide]		316 nM
COC(=O)NCCOc1ccc(-c2nc3c(OC4(C)CC4)ncnc3n2Cc2cc(C)ccn2)c(Cl)c1 [Example T228, methyl (2-(3-chloro-4-(6-(1-methylcyclopropoxy)-9-((4-methylpyridin-2-yl)methyl)-9H-purin-8-yl)phenoxy)ethyl)carbamate]		126 nM
Cc1ccnc(Cn2c(-c3ccc(OCCOCCO)cc3Cl)nc3c(OC4(C)CC4)ncnc32)c1 [Example T233, 2-(2-(3-chloro-4-(6-(1-methylcyclopropoxy)-9-((4-methylpyridin-2-yl)methyl)-9H-purin-8-yl)phenoxy)ethoxy)ethan-1-ol]		158 nM
Cc1ccnc(Cn2c(-c3ccc(N4CCNCC4)cc3Cl)nc3c(OC4(C)CC4)ncnc32)c1 [Example T235, 8-(2-chloro-4-(piperazin-1-yl)phenyl)-6-(1-methylcyclopropoxy)-9-((4-methylpyridin-2-yl)methyl)-9H-purine]		398 nM
Cc1cnc(Cn2c(-c3ccc(OCCN4CC[C@@H](O)C4)cc3Cl)nc3c(OC4(C)CC4)ncnc32)s1 [Example T245, (R)-1-(2-(3-chloro-4-(6-(1-methylcyclopropoxy)-9-((5-methylthiazol-2-yl)methyl)-9H-purin-8-yl)phenoxy)ethyl)pyrrolidin-3-ol]		631 nM
Cc1ccnc(Cn2c(-c3ccc(NCCN(C)C)cc3Cl)nc3c(OC4(C)CC4)ncnc32)c1 [Example T247, N1-(3-chloro-4-(6-(1-methylcyclopropoxy)-9-((4-methylpyridin-2-yl)methyl)-9H-purin-8-yl)phenyl)-N2,N2-dimethylethane-1,2-diamine]		501 nM
C/C(=C\COc1ccc(-c2nc3c(OC4(C)CC4)ncnc3n2Cc2cccc(Cl)c2)c(Cl)c1)C(=O)O [Example T255, (E)-4-(3-chloro-4-(9-(3-chlorobenzyl)-6-(1-methylcyclopropoxy)-9H-purin-8-yl)phenoxy)-2-methylbut-2-enoic acid]		316 nM
